Laboratory results published in PubChem BioAssay (NCI).
“And” between values parts separate entries of the source, which are not always exact repeats. Equal entries are not always repeated.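 Cultured in 96-well plates, cells were exposed to test compound for 48 hours across five concentrations. Abbreviation: GI50, concentration required for 50% inhibition of growth. TGI denotes the concentration required for complete inhibition of growth.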

Key:
Assay in all cases: growth of human tumour cells (NCI), 48 h
[1] = system: HCT-15 colon
[2] = system: SW-620 colon
[3] = system: OVCAR-8 ovarian
[4] = system: LOX IMVI melanoma
[5] = system: UACC-257 melanoma
[6] = system: K-562 leukemia
[7] = system: CCRF-CEM leukemia
[8] = system: NCI-H522 lung
[9] = system: SF-539 CNS
[10] = system: NCI/ADR-RES ovarian

SMILES	TGI [1]	TGI [2]	TGI [3] [µM]	TGI [4]	TGI [5]	TGI [6] [µM]	TGI [7]	TGI [8]	GI50 [1]	GI50 [2]	GI50 [9]	TGI [9]	GI50 [8] [µM]	GI50 [3]	GI50 [10]	TGI [10] [µM]	GI50 [4]	GI50 [5] [µM]	GI50 [6]	GI50 [7]
CCOC(=O)CN(Cn1cncn1)Cn1cncn1	47.2 µM	60 µM	58.8	43.4 µM	33 µM	> 100	> 100 µM													
O=C(O)c1cc(=O)c2c([nH]c3ccccc32)s1	> 100 µM	> 100 µM	> 100		> 100 µM	> 100	> 100 µM	> 100 µM												
CN(Cc1ccc(C(F)(F)F)cc1)CC(O)C(=O)Nc1ccc(Cl)cc1 (stereo not drawn)	2.61 µM	3.1 µM	3.5	2.3 µM	3.38 µM	2.78		3.06 µM	1.28 µM	1.54 µM	1.73 µM	3.24 µM	1.5	1.8 µM	1.58 µM	3.02	1.05 µM	1.81	1.18 µM	
COc1ccc(-c2cc(C(=O)Nc3cc(C(F)(F)F)cc(C(F)(F)F)c3)c3ccccc3n2)cc1	28.7 µM	21 µM	38.9	29.1 µM	51.4 µM	> 100	> 100 µM					28.4 µM								
COC(=O)C1=C(CS(=O)c2ccc([N+](=O)[O-])cc2[N+](=O)[O-])C2C=CC1C2 (stereo not drawn)	29.1 µM	28.6 µM	80.9	30.8 µM	92.2 µM	52.5	34.6 µM	27.3 µM				51.2 µM								
N/C(=N\NS(=O)(=O)c1ccccc1)Oc1ccc(Br)cc1Br	> 100 µM	24.3 µM	> 100	> 100 µM	> 100 µM	> 100	> 100 µM	> 100 µM				> 100 µM								
NCCCCC1NC(=O)C(CC(=O)O)NC(=O)CNC(=O)C(CCCN=C(N)N)NC(=O)C(N)CSSCC(C(=O)O)NC(=O)C(CC(=O)O)NC(=O)C2CCCN2C(=O)CNC1=O (stereo not drawn)	> 100 µM	> 100 µM	> 100	> 100 µM				> 100 µM	> 100 µM	> 100 µM	> 100 µM	> 100 µM	> 100	> 100 µM	> 100 µM	> 100	> 100 µM			
CC1(c2cc3c(cc2Br)OCO3)SCCCS1	> 100 µM	> 100 µM	> 100	> 100 µM		> 100	> 100 µM	7.36 µM				> 100 µM								
CC(C)(O)/C=C/C(=O)[C@](C)(O)[C@H]1[C@H](O)C[C@@]2(C)[C@@H]3CC=C4[C@@H](C[C@H](O)C(=O)C4(C)C)[C@]3(C)C(=O)C[C@]12C		9.68 µM	19.9	0.198 µM and 0.193 µM	0.598 µM and 2.81 µM	37	0.62 µM and 3.04 µM	0.453 µM and 0.775 µM	0.0862 µM and 0.159 µM	0.104 µM	0.217 µM	0.614 µM and 0.264 µM	0.069				0.0441 µM		0.0608 µM	0.0462 µM
C#CCNC(=S)N/N=C(\C)c1ccccn1	> 100 µM	> 100 µM	> 100	> 32 µM	1.49 µM	> 100	> 100 µM	> 100 µM	0.36 µM	0.341 µM	0.35 µM	3.52 µM	3.33	0.284 µM			0.588 µM	0.302	0.0751 µM	0.0677 µM
Clc1cccc(N2CCN(CCCN3CCc4c([nH]c5ccccc45)C3c3cccnc3)CC2)c1 (stereo not drawn)	21.8 µM	38.1 µM	26	37.9 µM	12.1 µM	> 100	> 100 µM	25.7 µM			11.7 µM	32.3 µM							5.06 µM	11.9 µM
Cc1c2c(cc3c1C(=O)C(=O)C1=C3OC[C@@H]1C)C(C)(C)CCC2	27.6 µM	28.4 µM	52.5	20.5 µM	28.4 µM	34.5	42 µM					29.8 µM								
Cc1nc2ccc(Br)cc2c(=O)n1-c1ccc(NC2OCC(O)C(O)C2O)cc1 (stereo not drawn)	43.6 µM and > 100 µM	47 µM and > 100 µM	> 100	33.8 µM and > 100 µM	> 100 µM	> 100	38 µM and > 100 µM		19.7 µM and > 100 µM	17.8 µM and > 100 µM	18.3 µM and > 100 µM	37.2 µM and > 100 µM		43.5 µM and > 100 µM	41.9 µM and > 100 µM	> 100	15.3 µM and > 100 µM	> 100	17.3 µM and > 100 µM	3.8 µM and 34.9 µM
COc1ccc(NC(=O)/C=C(C)/C=C/C=C(C)/C=C/C2=C(C)CCCC2(C)C)cc1	18.1 µM	8.43 µM	38.5	10.6 µM	26.7 µM	7.23	4.67 µM		4.51 µM	2.98 µM	2.59 µM	6.15 µM		13 µM	13.9 µM	31.1	2.93 µM	12.3	2.41 µM	2.05 µM
CCOC(=O)c1c(C)n(Cc2ccc(Cl)cc2Cl)c2c1cc1oc(=O)c(=O)n3cnc2c13	27.3 µM	40.5 µM	25.8	27.3 µM	21.7 µM	22.6	20.4 µM	32.9 µM	13.7 µM	22.1 µM	20.6 µM	38.3 µM	16.4	7.68 µM			14.2 µM	9.51	5.14 µM	6.31 µM
O=C1C(=O)N(c2ccc(Cl)cc2)C(=O)C(=O)C1c1nc2ccccc2s1	> 100 µM	> 100 µM	> 100	> 100 µM	> 100 µM	> 100		> 100 µM				> 100 µM								
CCC(C)Oc1nc2c(c(=O)n(C)c(=O)n2C)n1C (stereo not drawn)	> 100 µM	> 100 µM	> 100	> 100 µM	> 100 µM	> 100	> 100 µM		> 100 µM	> 100 µM	> 100 µM	> 100 µM		> 100 µM	> 100 µM	> 100	> 100 µM	> 100	> 100 µM	> 100 µM
